Activity calls are given as the source filed them. The rule behind the calls is not given here.
Key:
Ceutorhynchus obstrictus [1] = assay: Inhibition of emergence of new-generation Ceutorhynchus obstrictus adults from soil harboring Brassica napus L. Ryder plant developed from compound treated seeds at 600 g/L FS measured for 5 weeks relative to lindane; type: functional
Ceutorhynchus obstrictus [2] = assay: Inhibition of Ceutorhynchus obstrictus preimaginal development in Brassica napus L. Ryder pods of plant developed from compound treated seeds assessed as decrease in number of exit holes formed per pod by third-instar larvae at 600 g/L FS; type: functional, organism-based
Contarinia nasturtii = assay: Inhibition of Contarinia nasturtii larval development in Brassica oleracea L. var italica plant developed from compound pretreated seeds at 4.5 g AI per 100 g seed measured at 4-5 weeks after planting; type: functional; parameters: scale not given: the % may be the effect or the level left
Ceutorhynchus obstrictus [3] = assay: Inhibition of Ceutorhynchus obstrictus preimaginal development in Brassica napus L. Ryder pods of plant developed from compound treated seeds assessed as decrease in number of third-instar larvae at 600 g/L FS by microscopic analysis; type: functional, organism-based
Ceutorhynchus obstrictus [4] = assay: Inhibition of Ceutorhynchus obstrictus preimaginal development in Brassica napus L. Ryder pods of plant developed from compound treated seeds assessed as decrease in number of second-instar larvae at 600 g/L FS by microscopic analysis; type: functional, organism-based
Ceutorhynchus obstrictus [5] = assay: Inhibition of Ceutorhynchus obstrictus preimaginal development in Brassica napus L. Ryder pods of plant developed from compound treated seeds assessed as effect on number of first-instar larvae at 600 g/L FS by microscopic analysis; type: functional, organism-based
Ceutorhynchus obstrictus [6] = assay: Effect on Ceutorhynchus obstrictus oviposition in Brassica napus L. Ryder pods of plant developed from compound treated seeds assessed as number of eggs deposited at 600 g/L FS by microscopic analysis; type: functional, organism-based
Ceutorhynchus obstrictus [7] = assay: Inhibition of Ceutorhynchus obstrictus development in canola pods of plant developed from compound treated seeds assessed as decrease in number of exit holes formed by larvae at 0.30 kg AI per 45.36 kg seeds; type: functional
Ceutorhynchus obstrictus [8] = assay: Inhibition of Ceutorhynchus obstrictus development in canola pods of plant developed from compound treated seeds assessed as decrease in number of exit holes formed by larvae at 0.23 kg AI per 45.36 kg seeds; type: functional
Ceutorhynchus obstrictus [9] = assay: Inhibition of emergence of new-generation Ceutorhynchus obstrictus adults from soil harboring Brassica napus L. Ryder plant developed from compound treated seeds at 800 g/L FS measured for 5 weeks relative to lindane; type: functional
Ceutorhynchus obstrictus [10] = assay: Inhibition of Ceutorhynchus obstrictus preimaginal development in Brassica napus L. Ryder pods of plant developed from compound treated seeds assessed as decrease in number of exit holes formed per pod by larvae at 800 g/L FS; type: functional, organism-based
Ceutorhynchus obstrictus [11] = assay: Inhibition of Ceutorhynchus obstrictus preimaginal development in Brassica napus L. Ryder pods of plant developed from compound treated seeds assessed as decrease in number of third-instar larvae at 800 g/L FS by microscopic analysis; type: functional, organism-based
Ceutorhynchus obstrictus [12] = assay: Inhibition of Ceutorhynchus obstrictus preimaginal development in Brassica napus L. Ryder pods of plant developed from compound treated seeds assessed as decrease in number of second-instar larvae at 800 g/L FS by microscopic analysis; type: functional, organism-based
Ceutorhynchus obstrictus [13] = assay: Inhibition of Ceutorhynchus obstrictus preimaginal development in Brassica napus L. Ryder pods of plant developed from compound treated seeds assessed as effect on number of first-instar larvae at 800 g/L FS by microscopic analysis; type: functional, organism-based
Ceutorhynchus obstrictus [14] = assay: Effect on Ceutorhynchus obstrictus oviposition in Brassica napus L. Ryder pods of plant developed from compound treated seeds assessed as number of eggs deposited at 800 g/L FS by microscopic analysis; type: functional, organism-based
Ceutorhynchus obstrictus [15] = assay: Inhibition of Ceutorhynchus obstrictus development in canola pods of plant developed from compound treated seeds assessed as decrease in number of exit holes formed by larvae at 0.28 kg AI per 45.36 kg seeds relative to untreated control; type: functional
Ceutorhynchus obstrictus [16] = assay: Inhibition of Ceutorhynchus obstrictus development in canola pods of plant developed from compound treated seeds assessed as decrease in number of exit holes formed by larvae at 0.28 kg AI per 45.36 kg seeds; type: functional
Ceutorhynchus obstrictus [17] = assay: Inhibition of Ceutorhynchus obstrictus development in canola pods of plant developed from compound treated seeds assessed as decrease in number of exit holes formed by larvae at 0.45 kg AI per 45.36 kg seeds relative to untreated control; type: functional
Ceutorhynchus obstrictus [18] = assay: Inhibition of Ceutorhynchus obstrictus development in canola pods of plant developed from compound treated seeds assessed as decrease in number of exit holes formed by larvae at 0.38 kg AI per 45.36 kg seeds relative to untreated control; type: functional
Ceutorhynchus obstrictus [19] = assay: Inhibition of Ceutorhynchus obstrictus development in canola pods of plant developed from compound treated seeds assessed as decrease in number of exit holes formed by larvae at 0.30 kg AI per 45.36 kg seeds relative to untreated control; type: functional
Ceutorhynchus obstrictus [20] = assay: Inhibition of Ceutorhynchus obstrictus development in canola pods of plant developed from compound treated seeds assessed as decrease in number of exit holes formed by larvae at 0.23 kg AI per 45.36 kg seeds relative to untreated control; type: functional
Ceutorhynchus obstrictus [21] = assay: Inhibition of Ceutorhynchus obstrictus development in canola pods of plant developed from compound treated seeds assessed as decrease in number of exit holes formed by larvae at 0.45 kg AI per 45.36 kg seeds; type: functional
Ceutorhynchus obstrictus [22] = assay: Inhibition of Ceutorhynchus obstrictus development in canola pods of plant developed from compound treated seeds assessed as decrease in number of exit holes formed by larvae at 0.38 kg AI per 45.36 kg seeds; type: functional
Ceutorhynchus obstrictus [23] = assay: Ratio of compound to imidacloprid for exit holes formed in Brassica napus L. Ryder pod by […] larvae of Ceutorhynchus obstrictus; type: functional
Ceutorhynchus obstrictus [24] = assay: Ratio of compound to clothianidin for exit holes formed in Brassica napus L. Ryder pods by Ceutorhynchus obstrictus larvae; type: functional
Ceutorhynchus obstrictus [25] = assay: Inhibition of Ceutorhynchus obstrictus preimaginal development in Brassica napus L. Ryder pods of plant developed from compound treated seeds assessed as effect on number of first-instar larvae at 1351 g per 100 kg seeds by microscopic analysis; type: functional, organism-based
Ceutorhynchus obstrictus [26] = assay: Effect on Ceutorhynchus obstrictus oviposition in Brassica napus L. Ryder pods of plant developed from compound treated seeds assessed as number of eggs deposited at 1351 g per 100 kg seeds by microscopic analysis; type: functional, organism-based

Compound: CN/C(=N\[N+](=O)[O-])NCc1cnc(Cl)s1 [CLOTHIANIDINE]
- inhibition (INH) (Ceutorhynchus obstrictus [1]): 52.2%
- inhibition (Ceutorhynchus obstrictus [2]): Active
- Activity (Contarinia nasturtii): 100%
- inhibition (Ceutorhynchus obstrictus [3]): Active
- inhibition (Ceutorhynchus obstrictus [4]): Active
- inhibition (Ceutorhynchus obstrictus [5]): inactive
- Activity (Ceutorhynchus obstrictus [6]): inactive

Compound: O=[N+]([O-])/N=C1\NCCN1Cc1ccc(Cl)nc1 [IMIDACLOPRID]
- inhibition (INH) (Ceutorhynchus obstrictus [7]): 96%
- inhibition (INH) (Ceutorhynchus obstrictus [8]): 88%
- inhibition (INH) (Ceutorhynchus obstrictus [9]): 39.4%
- inhibition (Ceutorhynchus obstrictus [10]): Active
- inhibition (Ceutorhynchus obstrictus [11]): Active
- inhibition (Ceutorhynchus obstrictus [12]): Active
- inhibition (Ceutorhynchus obstrictus [13]): inactive
- Activity (Ceutorhynchus obstrictus [14]): inactive
- Activity (Contarinia nasturtii): 100%
- fold change (FC) (Ceutorhynchus obstrictus [15]): 2.2
- inhibition (INH) (Ceutorhynchus obstrictus [16]): 100%
- fold change (FC) (Ceutorhynchus obstrictus [17]): 2.4
- fold change (FC) (Ceutorhynchus obstrictus [18]): 2
- fold change (FC) (Ceutorhynchus obstrictus [19]): 2.1
- fold change (FC) (Ceutorhynchus obstrictus [20]): 1.9
- inhibition (INH) (Ceutorhynchus obstrictus [21]): 100%
- inhibition (INH) (Ceutorhynchus obstrictus [22]): 98%

Compound: Cl[C@H]1[C@H](Cl)[C@@H](Cl)[C@@H](Cl)[C@H](Cl)[C@H]1Cl [LINDANE]
- fold change (FC) (Ceutorhynchus obstrictus [23]): 2
- fold change (FC) (Ceutorhynchus obstrictus [24]): 2.5
- inhibition (Ceutorhynchus obstrictus [25]): inactive
- Activity (Ceutorhynchus obstrictus [26]): inactive

Source: ChEMBL document CHEMBL3046343, “Responses of the cabbage seedpod weevil, Ceutorhynchus obstrictus (Marsham) (Coleoptera: Curculionidae), to seed treatments of canola (Brassica napus L.) with the neonicotinoid compounds clothianidin and imidacloprid” (2009)
